Reference: patent US8399381B2, “Condensed heterocyclic sulfonyl urea compound, a herbicide containing the same, and a method for weed control using the same” (Sumitomo Chemical Company, Limited, priority 2002, dated 2013)

How the values were obtained:
[1] = test system: sulfonylurea herbicide-resistant Lindernia dubia subsp. major Pennell; assay: Paddy pot weeding test, flooded, two-leaf stage (Test Example 1); type: in vivo; settings: 1 g/are, three weeks after treatment, resistant biotype, Kawanishi Town, Yamagata Pref.
Source text: (§1) A 5 cm×5 cm Jiffy Pot™ was charged with paddy soil, then water was introduced into each pot, seeds of sulfonylurea herbicide-sensitive Scirpus juncoides var. ohwianus, sulfonylurea herbicide-sensitive Lindernia procumbens (Krock.) Philcox, sulfonylurea herbicide-sensitive Lindernia dubia subsp. major Pennell, sulfonylurea herbicide-resistant Scirpus juncoides var. ohwianus, sulfonylurea herbicide-resistant Lindernia procumbens (Krock.) Philcox and sulfonylurea herbicide-resistant Lindernia dubia subsp. major Pennell were sowed therein and cultivated for a prescribed period under flooding conditions. When the plants reached the two-leave stage, the prescribed number of Jiffy Pots where the plants had been grown were transferred to a 150-cm^2 rectangular plastic pot, and water was introduced to a height of 3 cm, and a chemical diluent containing a compound was applied into the pot in an amount of 1 g/are. The chemical diluent was prepared by dissolving 1.5 g compound in 2 L of N,N-dimethylformamide (DMF) containing, 2% (W/V) surfactant Tween™ 20 and then diluting it with water to adjust the total volume to 10 L.

[2] = test system: sulfonylurea herbicide-resistant Lindernia procumbens (Krock.) Philcox; assay: as above; type: in vivo; settings: 1 g/are, three weeks after treatment, resistant biotype, Tajiri Town, Miyagi Pref.
Source text: as §1

[3] = test system: sulfonylurea herbicide-resistant Scirpus juncoides var. ohwianus; assay: as above; type: in vivo; settings: 1 g/are, three weeks after treatment, resistant biotype, Iwamisawa City, Hokkaido
Source text: as §1

[4] = test system: sulfonylurea herbicide-sensitive Lindernia dubia subsp. major Pennell; assay: as above; type: in vivo; settings: 1 g/are, three weeks after treatment, sensitive biotype, Makabe Town, Ibaraki Pref.
Source text: as §1

[5] = test system: sulfonylurea herbicide-sensitive Lindernia procumbens (Krock.) Philcox; assay: as above; type: in vivo; settings: 1 g/are, three weeks after treatment, sensitive biotype, Kyoto Pref.
Source text: as §1

[6] = test system: sulfonylurea herbicide-sensitive Scirpus juncoides var. ohwianus; assay: as above; type: in vivo; settings: 1 g/are, three weeks after treatment, sensitive biotype, Kyoto Pref.
Source text: as §1

| SMILES | melting point | R Lindernia dubia subsp. major Pennell (effect index) [1] | R Lindernia procumbens (Krock.) Philcox (effect index) [2] | R Scirpus juncoides var. ohwianus (effect index) [3] | S Lindernia dubia subsp. major Pennell (effect index) [4] | S Lindernia procumbens (Krock.) Philcox (effect index) [5] | S Scirpus juncoides var. ohwianus (effect index) [6] |
| --- | --- | --- | --- | --- | --- | --- | --- |
| COc1cc(OC)nc(NC(=O)NS(=O)(=O)c2c(Cl)nc3cccnn23)n1 [comparison 2, reference compound] |  | 0 (none 0) | 0 (none 0) | 0 (none 0) | 5 (excellent 81 to 100) | 5 (excellent 81 to 100) | 5 (excellent 81 to 100) |
| CCOc1ccn2nc(C)c(NC(=O)NS(=O)(=O)c3nc(OC)cc(OC)n3)c2n1 [compound 34] |  | 5 (excellent 81 to 100) |  | 4 (high 61 to 80) |  | 5 (excellent 81 to 100) | 4 (high 61 to 80) |
| C/C=C/c1ccc2nc(Cl)c(S(=O)(=O)NC(=O)Nc3nc(OC)cc(OC)n3)n2n1 [Compound No. 45] |  | 5 (excellent 81 to 100) |  | 4 (high 61 to 80) | 5 (excellent 81 to 100) | 5 (excellent 81 to 100) | 5 (excellent 81 to 100) |
| COc1cc(OC)nc(NC(=O)NS(=O)(=O)c2c(Cl)nc3ccc(C4CC4)nn23)n1 [Compound No. 44] |  | 5 (excellent 81 to 100) |  | 4 (high 61 to 80) | 5 (excellent 81 to 100) | 5 (excellent 81 to 100) | 5 (excellent 81 to 100) |
| COc1cc(OC)nc(S(=O)(=O)NC(=O)Nc2c(C)nc3c(C)cc(SC)nn23)n1 [Compound No. 20] | 191 to 193 °C (dec.) |  |  |  |  |  |  |
| CCCCc1ccc2nc(Cl)c(S(=O)(=O)NC(=O)Nc3nc(OC)cc(OC)n3)n2n1 [Compound No. 41] |  | 5 (excellent 81 to 100) | 4 (high 61 to 80) | 5 (excellent 81 to 100) | 5 (excellent 81 to 100) | 5 (excellent 81 to 100) | 5 (excellent 81 to 100) |
| COc1cc(OC)nc(S(=O)(=O)NC(=O)Nc2c(C)nc3c(C)cc(N(C)C)nn23)n1 [Compound No. 15] | 266 to 268 °C (dec.) |  |  |  |  |  |  |
| CCCc1ccc2nc(Cl)c(S(=O)(=O)NC(=O)Nc3nc(OC)cc(OC)n3)n2n1 [Compound No. 38, 1-(2-chloro-6-n-propylimidazo[1,2-b]pyridazin-3-ylsulfonyl)-3-(4,6-dimethoxypyrimidin-2-yl)urea] |  | 5 (excellent 81 to 100) | 5 (excellent 81 to 100) | 5 (excellent 81 to 100) | 5 (excellent 81 to 100) | 5 (excellent 81 to 100) | 5 (excellent 81 to 100) |
| COc1cc(OC)nc(NC(=O)NS(=O)(=O)c2c(Cl)nc3ccc(C(C)C)nn23)n1 [Compound No. 40] |  | 5 (excellent 81 to 100) | 5 (excellent 81 to 100) | 5 (excellent 81 to 100) | 5 (excellent 81 to 100) | 5 (excellent 81 to 100) | 5 (excellent 81 to 100) |
| CCCc1nc2ccc(SC)nn2c1S(=O)(=O)NC(=O)Nc1nc(OC)cc(OC)n1 [Compound No. 31] |  | 4 (high 61 to 80) |  | 5 (excellent 81 to 100) | 5 (excellent 81 to 100) | 5 (excellent 81 to 100) | 5 (excellent 81 to 100) |
| CCCc1ccc2nc(C)c(S(=O)(=O)NC(=O)Nc3nc(OC)cc(OC)n3)n2n1 [Compound No. 36] |  | 5 (excellent 81 to 100) | 5 (excellent 81 to 100) | 5 (excellent 81 to 100) | 5 (excellent 81 to 100) | 5 (excellent 81 to 100) | 5 (excellent 81 to 100) |
| COc1cc(OC)nc(NC(=O)NS(=O)(=O)c2c(C)nc3cccnn23)n1 [comparison 1, reference compound] |  | 1 (very slight 1 to 20) | 0 (none 0) | 2 (slight 21 to 40) | 5 (excellent 81 to 100) | 5 (excellent 81 to 100) | 5 (excellent 81 to 100) |
| CCCc1ccc2nc(F)c(S(=O)(=O)NC(=O)Nc3nc(OC)cc(OC)n3)n2n1 [Compound No. 46] |  | 5 (excellent 81 to 100) |  | 5 (excellent 81 to 100) | 5 (excellent 81 to 100) | 5 (excellent 81 to 100) | 5 (excellent 81 to 100) |
| C=Cc1ccc2nc(Cl)c(S(=O)(=O)NC(=O)Nc3nc(OC)cc(OC)n3)n2n1 [Compound No. 43] |  | 5 (excellent 81 to 100) |  | 4 (high 61 to 80) | 5 (excellent 81 to 100) | 5 (excellent 81 to 100) | 5 (excellent 81 to 100) |

Further lines, with some results ahead:

| melting point | SMILES | R Lindernia dubia subsp. major Pennell (effect index) [1] | R Lindernia procumbens (Krock.) Philcox (effect index) [2] | R Scirpus juncoides var. ohwianus (effect index) [3] | S Lindernia dubia subsp. major Pennell (effect index) [4] | S Lindernia procumbens (Krock.) Philcox (effect index) [5] | S Scirpus juncoides var. ohwianus (effect index) [6] |
| --- | --- | --- | --- | --- | --- | --- | --- |
| 174 to 175 °C | CCc1nc2ccc(Cl)nn2c1NC(=O)NS(=O)(=O)c1nc(OC)cc(OC)n1 [Compound No. 2] |  |  |  |  |  |  |
| 180 to 182 °C | CCSc1ccc2nc(Cl)c(NC(=O)NS(=O)(=O)c3nc(OC)cc(OC)n3)n2n1 [Compound No. 25] | 4 (high 61 to 80) |  | 5 (excellent 81 to 100) | 5 (excellent 81 to 100) | 5 (excellent 81 to 100) | 5 (excellent 81 to 100) |
| 180 to 181 °C | CCOc1ccc2nc(CC)c(NC(=O)NS(=O)(=O)c3nc(OC)cc(OC)n3)n2n1 [Compound No. 5] |  |  |  |  |  |  |
| 246 to 248 °C (dec.) | COc1cc(OC)nc(S(=O)(=O)NC(=O)Nc2c(C)nc3ccc(S(C)(=O)=O)nn23)n1 [Compound No. 21] |  |  |  |  |  |  |
| 118 to 123 °C (dec.) | CCc1nc2ccc(OC)nn2c1NC(=O)NS(=O)(=O)c1nc(OC)cc(OC)n1 [Compound No. 6] |  |  |  |  |  |  |
| 168 to 169 °C | CCOc1ccc2nc(Cl)c(NC(=O)NS(=O)(=O)c3nc(OC)cc(OC)n3)n2n1 [Compound No. 23] | 4 (high 61 to 80) |  | 5 (excellent 81 to 100) | 5 (excellent 81 to 100) | 5 (excellent 81 to 100) | 5 (excellent 81 to 100) |
| 241 °C | COc1cc(OC)nc(S(=O)(=O)NC(=O)Nc2c(C)nc3ccc(OC)nn23)n1 [Compound No. 17] |  |  |  |  |  |  |
| 179 to 180 °C | CCSc1ccc2nc(C(F)(F)F)c(NC(=O)NS(=O)(=O)c3nc(OC)cc(OC)n3)n2n1 [Compound No. 11] | 5 (excellent 81 to 100) |  | 5 (excellent 81 to 100) | 5 (excellent 81 to 100) | 5 (excellent 81 to 100) | 5 (excellent 81 to 100) |
| 169 to 171 °C | CCOc1ccc2nc(C(F)(F)F)c(NC(=O)NS(=O)(=O)c3nc(OC)cc(OC)n3)n2n1 [Compound No. 10] |  |  |  |  |  |  |
| 193 to 195 °C | COc1cc(OC)nc(S(=O)(=O)NC(=O)Nc2c(Cl)nc3ccc(N(C)C)nn23)n1 [Compound No. 22] |  |  |  |  |  |  |
| 182 to 184 °C | CCc1nc2ccc(C)nn2c1NC(=O)NS(=O)(=O)c1nc(OC)cc(OC)n1 [Compound No. 1] |  |  |  |  |  |  |
| 172 to 174 °C | COc1cc(C)nc(S(=O)(=O)NC(=O)Nc2c(Cl)nc3ccc(SC)nn23)n1 [Compound No. 27] |  |  |  |  |  |  |
